Holding throughout (test): Method 1: intracellular Ca2+ release (FLIPR, Calcium 5) in recombinant CHO-K1 cells
What all share (format): cell-based

The target of one assay is T1, human S1PR5 receptor (Homo sapiens, UniProt Q9H228).
T1 construct: host or cells: CHO-K1
The conditions noted are these: agonist potency, determined with method 1 (symbols A-D); read-out: S1P5 EC50 range. In outline:
(§1)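 Agonist EC50 values come from nonlinear fits of FLIPR Ca2+ fluorescence, normalized to the phospho-fingolimod reference curve. Recombinant CHO-K1 (receptor plus Gq/i5, aequorin) dye-loaded 1 h at 37° C in pH 7.4 Hepes/probenecid/BSA buffer. Antagonist mode: 10 min preincubation before phospho-fingolimod at EC80.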

The next assay addresses T2, human S1PR4 receptor (Homo sapiens, UniProt O95977).
T2 construct: host or cells: CHO-K1
T2 sequence (O95977 1-384): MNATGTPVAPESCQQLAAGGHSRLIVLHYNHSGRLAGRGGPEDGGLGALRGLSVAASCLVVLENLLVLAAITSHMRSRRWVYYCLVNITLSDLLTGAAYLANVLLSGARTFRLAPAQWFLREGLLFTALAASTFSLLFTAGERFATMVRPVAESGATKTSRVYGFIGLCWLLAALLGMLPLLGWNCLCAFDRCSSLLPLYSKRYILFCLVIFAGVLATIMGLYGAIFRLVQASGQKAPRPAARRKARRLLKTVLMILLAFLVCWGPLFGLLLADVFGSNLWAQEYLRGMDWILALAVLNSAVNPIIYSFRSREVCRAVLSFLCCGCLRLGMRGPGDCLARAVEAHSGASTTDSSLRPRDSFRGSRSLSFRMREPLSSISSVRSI
The conditions noted are these: (1): determined with method 1; read-out: S1P4 EC50. In outline:
as §1

A further assay addresses T3, human S1PR1 receptor (Homo sapiens, UniProt P21453).
T3 construct: host or cells: CHO-K1
The conditions noted are these: (1): determined with method 1; read-out: S1P1 EC50. In outline: as §1

The target of the next assay is T4, human S1PR3 receptor (Homo sapiens, UniProt Q99500).
T4 construct: host or cells: CHO-K1
T4 sequence (Q99500 whole entry): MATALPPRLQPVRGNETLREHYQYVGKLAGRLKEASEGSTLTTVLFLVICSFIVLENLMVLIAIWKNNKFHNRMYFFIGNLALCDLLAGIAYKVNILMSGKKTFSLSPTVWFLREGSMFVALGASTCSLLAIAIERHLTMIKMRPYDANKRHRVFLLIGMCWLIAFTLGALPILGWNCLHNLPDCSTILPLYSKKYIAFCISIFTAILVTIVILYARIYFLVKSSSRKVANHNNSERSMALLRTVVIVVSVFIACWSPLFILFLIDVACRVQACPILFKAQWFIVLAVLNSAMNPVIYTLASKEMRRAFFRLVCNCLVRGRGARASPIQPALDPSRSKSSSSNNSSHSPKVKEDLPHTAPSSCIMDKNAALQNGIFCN
The settings on record: (1): determined with method 1; read-out: S1P3 EC50. In outline:
as §1

Where a name gives a salt, the structure may show the parent alone.

T3 sequence (P21453 whole entry): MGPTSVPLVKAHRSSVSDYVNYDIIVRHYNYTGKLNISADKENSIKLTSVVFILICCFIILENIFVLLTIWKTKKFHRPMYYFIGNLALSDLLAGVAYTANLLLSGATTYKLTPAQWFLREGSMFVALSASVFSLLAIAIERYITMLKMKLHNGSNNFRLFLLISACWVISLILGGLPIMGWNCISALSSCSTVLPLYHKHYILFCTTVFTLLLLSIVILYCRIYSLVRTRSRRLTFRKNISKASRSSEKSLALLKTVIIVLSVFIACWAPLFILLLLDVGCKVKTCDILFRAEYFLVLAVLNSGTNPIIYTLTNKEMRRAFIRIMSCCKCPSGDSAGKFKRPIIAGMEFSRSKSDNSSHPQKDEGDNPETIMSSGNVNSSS
T1 sequence (Q9H228 whole entry): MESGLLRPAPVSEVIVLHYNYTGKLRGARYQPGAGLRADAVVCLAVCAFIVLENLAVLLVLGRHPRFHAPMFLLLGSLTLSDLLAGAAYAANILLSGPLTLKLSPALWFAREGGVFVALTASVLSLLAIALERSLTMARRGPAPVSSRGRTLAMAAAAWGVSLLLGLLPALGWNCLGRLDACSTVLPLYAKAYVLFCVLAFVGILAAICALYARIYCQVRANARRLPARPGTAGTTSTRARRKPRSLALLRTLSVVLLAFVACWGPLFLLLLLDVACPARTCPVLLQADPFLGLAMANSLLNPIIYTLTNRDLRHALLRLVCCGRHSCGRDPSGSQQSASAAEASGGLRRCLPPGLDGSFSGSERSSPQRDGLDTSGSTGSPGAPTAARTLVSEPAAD

As for `O=C(O)CCN1CCc2nc(-c3ccc(OCc4cccc(Cl)c4)cc3)cnc2C1` [Compound 179, 3-(2-(4-((3-chlorobenzyl)oxy)phenyl)-7,8-dihydropyrido[3,4-b]pyrazin-6(5H)-yl)propanoic acid], the EC50 is under 10 nM at human S1PR5 receptor, over 1000 nM at human S1PR4 receptor, over 1000 nM on human S1PR1 receptor and under 1000 nM at human S1PR3 receptor.

Regarding `CC(CC(=O)O)CN1CCc2nc(-c3ccc(OCc4ccc(Cl)c(Cl)c4)cc3F)ncc2C1` (stereo not drawn) [Compound 271, 4-[2-[4-[(3,4-dichlorophenyl)methoxy]-2-fluoro-phenyl]-7,8-dihydro-5H-pyrido[4,3-d]pyrimidin-6-yl]-3-methyl-butanoic acid 2,2,2-trifluoroacetic acid salt], the concentration for a half-maximal effect (EC50) was 10 to 100 nM at human S1PR5 receptor, over 1000 nM on human S1PR4 receptor, over 1000 nM on human S1PR1 receptor and over 1000 nM on human S1PR3 receptor.

Regarding `O=C(O)C1CC(N2CCc3nc(C#Cc4cccc(Cl)c4)ccc3C2)C1` (stereo not drawn) [Compound 128, 3-(2-((3-chlorophenyl)ethynyl)-7,8-dihydro-1,6-naphthyridin-6(5H)-yl)cyclobutanecarboxylic acid], the EC50 at human S1PR5 receptor was 1000 to 10000 nM; at human S1PR4 receptor, over 1000 nM; on human S1PR1 receptor, over 1000 nM; on human S1PR3 receptor, over 1000 nM.

For the compound `CC(CC(=O)O)CN1CCc2nc(-c3ccc(OCc4ccc(F)c(F)c4)cc3)ncc2C1` (stereo not drawn) [Compound 228, 4-(2-(4-((3,4-difluorobenzyl)oxy)phenyl)-7,8-dihydropyrido[4,3-d]pyrimidin-6(5H)-yl)-3-methylbutanoic acid], the EC50 on human S1PR5 receptor is under 10 nM; at human S1PR4 receptor, over 1000 nM; on human S1PR1 receptor, over 1000 nM; at human S1PR3 receptor, over 1000 nM.

For `CCOc1ccc(C#Cc2ncc3c(n2)CCN(C2CC(C(=O)O)C2)C3)cc1` (stereo not drawn) [Compound 56, 3-(2-((4-ethoxyphenyl)ethynyl)-7,8-dihydropyrido[4,3-d]pyrimidin-6(5H)-yl)cyclobutanecarboxylic acid], the concentration giving a half-maximal response (EC50) on human S1PR5 receptor was 1000 to 10000 nM; at human S1PR4 receptor it was over 1000 nM; at human S1PR1 receptor, over 1000 nM; at human S1PR3 receptor it was over 1000 nM.

On to `CC(CC(=O)O)CN1CCc2nc(-c3ccc(OCc4ccc(F)cc4)cc3)ncc2C1` (stereo not drawn) [Compound 225, 4-(2-(4-((4-fluorobenzyl)oxy)phenyl)-7,8-dihydropyrido[4,3-d]pyrimidin-6(5H)-yl)-3-methylbutanoic acid], for which the EC50 was under 10 nM at human S1PR5 receptor, over 1000 nM on human S1PR4 receptor, over 1000 nM on human S1PR1 receptor and over 1000 nM at human S1PR3 receptor.

Consider `CC(CC(=O)O)CN1CCc2nc(-c3ccc(OCc4ccccc4F)cc3F)ncc2C1` (stereo not drawn) [Compound 242, 4-[2-[2-fluoro-4-[(2-fluorophenyl)methoxy]phenyl]-7,8-dihydro-5H-pyrido[4,3-d]pyrimidin-6-yl]-3-methyl-butanoic acid 2,2,2-trifluoroacetic acid salt], for which the EC50 was under 10 nM at human S1PR5 receptor, over 1000 nM at human S1PR4 receptor, over 1000 nM at human S1PR1 receptor and over 1000 nM on human S1PR3 receptor.

Consider `Cc1cc(-c2cc3c(cn2)CN(CCC(=O)O)CC3)ccc1OCc1ccc(Cl)cc1` [Compound 172, 3-(6-(4-((4-chlorobenzyl)oxy)-3-methylphenyl)-3,4-dihydro-2,7-naphthyridin-2(1H)-yl)propanoic acid], for which the EC50 on human S1PR5 receptor is under 10 nM; on human S1PR4 receptor, over 1000 nM; at human S1PR1 receptor, over 1000 nM; on human S1PR3 receptor it was over 1000 nM.

As to `O=C(O)C1CC(N2CCc3nc(C#Cc4cccc(Cl)c4)ncc3C2)C1` (stereo not drawn) [Compound 62, 3-(2-((3-chlorophenyl)ethynyl)-7,8-dihydropyrido[4,3-d]pyrimidin-6(5H)-yl)cyclobutanecarboxylic acid], the EC50 at human S1PR5 receptor is 1000 to 10000 nM; on human S1PR4 receptor, over 1000 nM; on human S1PR1 receptor it was over 1000 nM; on human S1PR3 receptor it was over 1000 nM.

Take `CC(CCC(=O)O)N1CCc2nc(-c3ccc(OCc4cccc(Cl)c4)cc3)ncc2C1` (stereo not drawn) [Compound 65, 4-(2-(4-((3-chlorobenzyl)oxy)phenyl)-7,8-dihydropyrido[4,3-d]pyrimidin-6(5H)-yl)pentanoic acid]: the 50% effective concentration (EC50) on human S1PR5 receptor was 10 to 100 nM; at human S1PR4 receptor it was over 1000 nM; on human S1PR1 receptor, over 1000 nM; at human S1PR3 receptor, over 1000 nM.

On to `O=C(O)CN1CCc2nc(-c3ccc(OCc4ccc(Cl)c(Cl)c4)cc3)ncc2C1` [Compound 30, 2-(2-(4-((3,4-dichlorobenzyl)oxy)phenyl)-7,8-dihydropyrido[4,3-d]pyrimidin-6(5H)-yl)acetic acid], for which the concentration giving a half-maximal response (EC50) at human S1PR5 receptor was 10 to 100 nM; on human S1PR4 receptor it was over 1000 nM; on human S1PR1 receptor, over 1000 nM; at human S1PR3 receptor it was over 1000 nM.

Turning to `O=C(O)CCN1CCc2nc(-c3ccc(OCc4cccc(Cl)c4)cc3)c(F)cc2C1` [Compound 189, 3-(2-(4-((3-chlorobenzyl)oxy)phenyl)-3-fluoro-7,8-dihydro-1,6-naphthyridin-6(5H)-yl)propanoic acid], the EC50 on human S1PR5 receptor is under 10 nM; at human S1PR4 receptor it was over 1000 nM; at human S1PR1 receptor, over 1000 nM; at human S1PR3 receptor, over 1000 nM.

In the case of `Cc1cc(-c2ncc3c(n2)CCN(CC(C)CC(=O)O)C3)ccc1OCc1cccc(Cl)c1` (stereo not drawn) [Compound 252, 4-(2-(4-((3-chlorobenzyl)oxy)-3-methylphenyl)-7,8-dihydropyrido[4,3-d]pyrimidin-6(5H)-yl)-3-methylbutanoic acid], the EC50 at human S1PR5 receptor is under 10 nM; on human S1PR4 receptor, over 1000 nM; at human S1PR1 receptor, over 1000 nM; on human S1PR3 receptor it was over 1000 nM.

`C[C@@H](CC(=O)O)CN1CCc2nc(-c3ccc(OCc4ccc(Cl)cc4)cc3)ncc2C1=O` [Compound 267, (S)-4-(2-(4-((4-chlorobenzyl)oxy)phenyl)-5-oxo-7,8-dihydropyrido[4,3-d]pyrimidin-6(5H)-yl)-3-methylbutanoic acid]: the concentration for a half-maximal effect (EC50) is 10 to 100 nM at human S1PR5 receptor, over 1000 nM on human S1PR4 receptor, over 1000 nM on human S1PR1 receptor and over 1000 nM on human S1PR3 receptor.

For the compound `Cc1cc(-c2ncc3c(n2)CCN(CC(C)CC(=O)O)C3)ccc1OCc1ccc(Cl)cc1` (stereo not drawn) [Compound 258, 4-(2-(4-((4-chlorobenzyl)oxy)-3-methylphenyl)-7,8-dihydropyrido[4,3-d]pyrimidin-6(5H)-yl)-3-methylbutanoic acid], the concentration giving a half-maximal response (EC50) is 10 to 100 nM on human S1PR5 receptor, over 1000 nM on human S1PR4 receptor, over 1000 nM on human S1PR1 receptor and over 1000 nM on human S1PR3 receptor.

As to `O=C(O)CC1CC(N2CCc3nc(-c4ccc(OCc5ccc(Cl)cc5)cc4)ncc3C2)C1` (stereo not drawn) [Compound 2, 2-(3-(2-(4-((4-chlorobenzyl)oxy)phenyl)-7,8-dihydropyrido[4,3-d]pyrimidin-6(5H)-yl)cyclobutyl)acetic acid], the half-maximal effective concentration (EC50) at human S1PR5 receptor was 100 to 1000 nM; at human S1PR4 receptor, over 1000 nM; at human S1PR1 receptor it was over 1000 nM; at human S1PR3 receptor it was over 1000 nM.

For the compound `Cc1c(COc2ccc(-c3ncc4c(n3)CCN(CC(C)CC(=O)O)C4)cc2)cccc1C(F)(F)F` (stereo not drawn) [Compound 246, 3-methyl-4-[2-[4-[[2-methyl-3-(trifluoromethyl)phenyl]methoxy]phenyl]-7,8-dihydro-5H-pyrido[4,3-d]pyrimidin-6-yl]butanoic acid 2,2,2-trifluoroacetic acid salt], the concentration giving a half-maximal response (EC50) on human S1PR5 receptor was under 10 nM; at human S1PR4 receptor it was over 1000 nM; on human S1PR1 receptor, over 1000 nM; at human S1PR3 receptor, over 1000 nM.

Regarding `Cc1ccc(COc2ccc(-c3ncc4c(n3)CCN(CC(C)CC(=O)O)C4)c(F)c2)cc1C(F)(F)F` (stereo not drawn) [Compound 279, 4-[2-[2-fluoro-4-[[4-methyl-3-(trifluoromethyl)phenyl]methoxy]phenyl]-7,8-dihydro-5H-pyrido[4,3-d]pyrimidin-6-yl]-3-methyl-butanoic acid 2,2,2-trifluoroacetic acid salt], the EC50 is 10 to 100 nM on human S1PR5 receptor, over 1000 nM on human S1PR4 receptor, over 1000 nM on human S1PR1 receptor and over 1000 nM at human S1PR3 receptor.

For the compound `CC(CC(=O)O)CN1CCc2nc(-c3ccc(OCc4ccc(Cl)cc4)cc3)ncc2C1` (racemic) [Compound 23, 4-(2-(4-((4-chlorobenzyl)oxy)phenyl)-7,8-dihydropyrido[4,3-d]pyrimidin-6(5H)-yl)-3-methylbutanoic acid], the half-maximal effective concentration (EC50) on human S1PR5 receptor was under 10 nM; at human S1PR4 receptor it was over 1000 nM; at human S1PR1 receptor it was over 1000 nM; at human S1PR3 receptor, over 1000 nM.

As to `Cc1cc(-c2ccc3c(n2)CCN(CCC(=O)O)C3)ccc1OCc1ccc(Cl)cc1` [Compound 169, 3-(2-(4-((4-chlorobenzyl)oxy)-3-methylphenyl)-7,8-dihydro-1,6-naphthyridin-6(5H)-yl)propanoic acid], the EC50 was under 10 nM at human S1PR5 receptor, over 1000 nM at human S1PR4 receptor, over 1000 nM at human S1PR1 receptor and over 1000 nM on human S1PR3 receptor.

On to `O=C(O)CCN1CCc2cc(-c3ccc(OCc4cccc(Cl)c4)cc3)ncc2C1` [Compound 175, 3-(6-(4-((3-chlorobenzyl)oxy)phenyl)-3,4-dihydro-2,7-naphthyridin-2(1H)-yl)propanoic acid], for which the EC50 at human S1PR5 receptor is under 10 nM; at human S1PR4 receptor, over 1000 nM; on human S1PR1 receptor it was over 1000 nM; on human S1PR3 receptor it was over 1000 nM.

By EC50 is commonly meant the concentration needed to bring the measured effect to its halfway point.

(Values after patent US10556907B2 (AbbVie Inc., priority 2015, dated 2020).)
